According to PubChem BioAssay AID330 (DTP/NCI, 2004):
Several values for one entry are separate records, joined by “and”; a condition that tells them apart may be missing. Equal entries are not always repeated. Inconclusive results and toxic doses are left out.

System: P388 leukemia ip, CD2F1 mice, survival T/C
Experiment: NCI In Vivo Anticancer Drug Screen. Data for tumor model P388 Leukemia (intraperitoneal) in CD2F1 (CDF1) mice
Details: endpoint: median survival time, higher = longer survival
Method in brief: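 Mice carrying the transplanted tumor received test compound or vehicle. Survival was recorded in each group, and the value is the treated-group measurement divided by that of the vehicle-treated control group.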

[1] = dose: 50.0 mg/kg/injection, schedule: Q01DX005 (ip), vehicle: Klucel (hydroxypropylcellulose) (HPC)
[2] = dose: 100.0 mg/kg/injection, schedule: Q01DX005 (ip), vehicle: Klucel (hydroxypropylcellulose) (HPC)
[3] = dose: 25.0 mg/kg/injection, schedule: Q01DX009 (ip), vehicle: saline with Tween-80
[4] = dose: 50.0 mg/kg/injection, schedule: Q01DX009 (ip), vehicle: saline with Tween-80
[5] = dose: 100.0 mg/kg/injection, schedule: Q01DX009 (ip), vehicle: saline with Tween-80
[6] = dose: 50.0 mg/kg/injection, schedule: Q01DX009 (ip), vehicle: saline
[7] = dose: 50.0 mg/kg/injection, schedule: Q01DX005 (ip), vehicle: saline with Tween-80
[8] = dose: 100.0 mg/kg/injection, schedule: Q01DX005 (ip), vehicle: saline with Tween-80
[9] = dose: 200.0 mg/kg/injection, schedule: Q01DX005 (ip), vehicle: saline with Tween-80
[10] = dose: 200.0 mg/kg/injection, schedule: Q01DX009 (ip), vehicle: saline with Tween-80
[11] = dose: 400.0 mg/kg/injection, schedule: Q01DX009 (ip), vehicle: saline with Tween-80

SMILES: Cn1c(Cl)c(/C=C2/N=C(c3ccccc3)OC2=O)c2ccccc21
- T/C (dose: 100.0 mg/kg/injection, schedule: Q01DX001 (ip), vehicle: Klucel (hydroxypropylcellulose) (HPC)): 94 % of control
- T/C (dose: 200.0 mg/kg/injection, schedule: Q01DX001 (ip), vehicle: Klucel (hydroxypropylcellulose) (HPC)): 94 % of control
- T/C (dose: 400.0 mg/kg/injection, schedule: Q01DX001 (ip), vehicle: Klucel (hydroxypropylcellulose) (HPC)): 94 % of control

SMILES: CC(C)(C)/C=C/N=NNc1cc2ccccc2s1
- T/C (dose: 60.0 mg/kg/injection, schedule: Q01DX005 (ip), vehicle: Klucel (hydroxypropylcellulose) (HPC)): 100 % of control
- T/C (dose: 120.0 mg/kg/injection, schedule: Q01DX005 (ip), vehicle: Klucel (hydroxypropylcellulose) (HPC)): 105 % of control
- T/C (dose: 240.0 mg/kg/injection, schedule: Q01DX005 (ip), vehicle: Klucel (hydroxypropylcellulose) (HPC)): 108 % of control

SMILES: OCC1OC(Oc2ccc(Cl)cc2)C(O)C1O (centres undefined)
- T/C (dose: 50.0 mg/kg/injection, schedule: Q04DX002 (ip), vehicle: saline with Tween-80): 105 % of control
- T/C (dose: 100.0 mg/kg/injection, schedule: Q04DX002 (ip), vehicle: saline with Tween-80): 98 % of control
- T/C (dose: 200.0 mg/kg/injection, schedule: Q04DX002 (ip), vehicle: saline with Tween-80): 112 % of control

SMILES: Oc1ccc[n+](CCCCCC[n+]2cccc(O)c2)c1
- T/C (dose: 12.5 mg/kg/injection, schedule: Q01DX009 (ip), vehicle: water): 118 % of control
- T/C (dose: 25.0 mg/kg/injection, schedule: Q01DX009 (ip), vehicle: water): 105 % of control
- T/C (dose: 50.0 mg/kg/injection, schedule: Q01DX009 (ip), vehicle: water): 110 % of control
- T/C (dose: 100.0 mg/kg/injection, schedule: Q01DX009 (ip), vehicle: water): 112 % of control
- T/C (dose: 200.0 mg/kg/injection, schedule: Q01DX009 (ip), vehicle: water): 102 % of control
- T/C (dose: 400.0 mg/kg/injection, schedule: Q01DX009 (ip), vehicle: water): 102 % of control

SMILES: O=C1CC(c2ccccc2)C(=O)N1CN1CCOCC1 (centres undefined)
- T/C [1]: 110 % of control
- T/C [2]: 97 % of control
- T/C (dose: 200.0 mg/kg/injection, schedule: Q01DX005 (ip), vehicle: Klucel (hydroxypropylcellulose) (HPC)): 97 % of control

SMILES: CCn1c(=O)[nH]c(=O)c2conc21
- T/C [3]: 95 % of control
- T/C [4]: 104 % of control
- T/C [5]: 96 % of control

SMILES: COc1ccc2[se]c(C(=O)O)cc2c1
- T/C [6]: 91 % of control
- T/C (dose: 100.0 mg/kg/injection, schedule: Q01DX009 (ip), vehicle: saline): 91 % of control

SMILES: [Cl][Sn]([O][Sn]([Cl])([c]1ccccc1)[CH]1CCCCC1)([c]1ccccc1)[CH]1CCCCC1 (centres undefined)
- T/C (dose: 0.19 mg/kg/injection, schedule: Q01DX005 (ip), vehicle: saline): 100 % of control
- T/C (dose: 0.39 mg/kg/injection, schedule: Q01DX005 (ip), vehicle: saline): 105 % of control
- T/C (dose: 0.79 mg/kg/injection, schedule: Q01DX005 (ip), vehicle: saline): 117 % of control

SMILES: [N-]=[N+]=NC1(N=[N+]=[N-])C(=O)Nc2ccc(Cl)cc2C1=O (centres undefined)
- T/C [1]: 107 % of control
- T/C [2]: 88 % of control

SMILES: CC1=CCC2(C)C(=O)CC3(C)C(CCC4C5(C)CCC(=O)C(C)(C)C5CCC43C)C2C1C (centres undefined)
- T/C (dose: 1.75 mg/kg/injection, schedule: Q01DX009 (ip), vehicle: saline): 103 % of control and 121 % of control
- T/C (dose: 3.5 mg/kg/injection, schedule: Q01DX009 (ip), vehicle: saline): 99 % of control and 114 % of control
- T/C (dose: 7.0 mg/kg/injection, schedule: Q01DX009 (ip), vehicle: saline): 110 % of control and 118 % of control

SMILES: Cc1cccc(Nc2n[nH]c(N)n2)c1
- T/C (dose: 50.0 mg/kg/injection, schedule: Q01DX009 (ip), vehicle: Klucel (hydroxypropylcellulose) (HPC)): 91 % of control
- T/C (dose: 100.0 mg/kg/injection, schedule: Q01DX009 (ip), vehicle: Klucel (hydroxypropylcellulose) (HPC)): 94 % of control

SMILES: CCOCCN1CCN(CCCN2c3ccccc3Sc3ccc(C(F)(F)F)cc32)CC1
- T/C (dose: 6.25 mg/kg/injection, schedule: Q04DX003 (ip), vehicle: saline): 104 % of control and 88 % of control
- T/C (dose: 12.5 mg/kg/injection, schedule: Q04DX003 (ip), vehicle: saline): 110 % of control and 118 % of control
- T/C (dose: 25.0 mg/kg/injection, schedule: Q04DX003 (ip), vehicle: saline): 115 % of control

SMILES: O=C(c1ccc(CSc2ccc(Cl)cc2)o1)N1CCOCC1
- T/C [7]: 99 % of control
- T/C [8]: 101 % of control
- T/C [9]: 91 % of control

SMILES: CC(=O)OC1(CSc2ccccc2)CCCCC1
- T/C [3]: 89 % of control
- T/C [4]: 101 % of control and 102 % of control
- T/C [5]: 104 % of control and 109 % of control
- T/C [10]: 108 % of control and 111 % of control
- T/C [11]: 111 % of control

SMILES: S=C1SCN(Cc2ccccc2)CN1Cc1ccccc1
- T/C [4]: 100 % of control
- T/C [5]: 93 % of control
- T/C [10]: 89 % of control

SMILES: CC(C)(C)c1cc(C#C[Si](C)(C)C)cc(C(C)(C)C)c1
- T/C (dose: 6.25 mg/kg/injection, schedule: Q01DX005 (ip), vehicle: Klucel (hydroxypropylcellulose) (HPC)): 98 % of control
- T/C (dose: 12.5 mg/kg/injection, schedule: Q01DX005 (ip), vehicle: Klucel (hydroxypropylcellulose) (HPC)): 101 % of control
- T/C (dose: 25.0 mg/kg/injection, schedule: Q01DX005 (ip), vehicle: Klucel (hydroxypropylcellulose) (HPC)): 92 % of control

SMILES: CCOC(=O)CCC(C)(C#N)C(C#N)C(=O)OCC (centres undefined)
- T/C [5]: 100 % of control
- T/C (dose: 100.0 mg/kg/injection, schedule: Q04DX003 (ip), vehicle: saline with Tween-80): 100 % of control
- T/C (dose: 200.0 mg/kg/injection, schedule: Q04DX003 (ip), vehicle: saline with Tween-80): 100 % of control
- T/C [11]: 100 % of control
- T/C (dose: 400.0 mg/kg/injection, schedule: Q04DX003 (ip), vehicle: saline with Tween-80): 100 % of control

SMILES: COc1ccc2nc3cc(Cl)ccc3c(NCCC3CCCN4CCCCC34)c2c1 (centres undefined)
- T/C (dose: 12.5 mg/kg/injection, schedule: Q01DX005 (ip), vehicle: distilled water + Tween-80): 109 % of control
- T/C (dose: 25.0 mg/kg/injection, schedule: Q01DX005 (ip), vehicle: distilled water + Tween-80): 114 % of control

SMILES: CC1(C)NC(=O)[C@]2(C[C@@H](O)C=C2CO)O1
- T/C (dose: 25.0 mg/kg/injection, schedule: Q01DX005 (ip), vehicle: saline): 94 % of control
- T/C (dose: 50.0 mg/kg/injection, schedule: Q01DX005 (ip), vehicle: saline): 99 % of control
- T/C (dose: 100.0 mg/kg/injection, schedule: Q01DX005 (ip), vehicle: saline): 93 % of control

SMILES: C=C(C(=O)OC)C1C=CCCCC1 (centres undefined)
- T/C (dose: 100.0 mg/kg/injection, schedule: Q01DX001 (ip), vehicle: saline with Tween-80): 114 % of control
- T/C (dose: 200.0 mg/kg/injection, schedule: Q01DX001 (ip), vehicle: saline with Tween-80): 113 % of control
- T/C (dose: 400.0 mg/kg/injection, schedule: Q01DX001 (ip), vehicle: saline with Tween-80): 105 % of control

SMILES: Cc1ccc(SCC#CC#CCS(=O)c2ccc(C)cc2)cc1 (centres undefined)
- T/C [7]: 110 % of control
- T/C [8]: 107 % of control

SMILES: NC(CO)C(=O)NCCS(=O)(=O)O (centres undefined)
- T/C (dose: 60.0 mg/kg/injection, schedule: Q01DX005 (ip), vehicle: saline): 104 % of control
- T/C (dose: 120.0 mg/kg/injection, schedule: Q01DX005 (ip), vehicle: saline): 99 % of control
- T/C (dose: 240.0 mg/kg/injection, schedule: Q01DX005 (ip), vehicle: saline): 99 % of control

SMILES: CCCCCC(N)C(C)=O (centres undefined)
- T/C (dose: 12.5 mg/kg/injection, schedule: Q01DX009 (ip), vehicle: saline): 110 % of control
- T/C (dose: 25.0 mg/kg/injection, schedule: Q01DX009 (ip), vehicle: saline): 106 % of control
- T/C [4]: 106 % of control and 97 % of control
- T/C [6]: 105 % of control
- T/C [10]: 187 % of control
- T/C [11]: 187 % of control

SMILES: Clc1ccc(OCC(COc2ccc(Cl)cc2)(COc2ccc(Cl)cc2)COc2ccc(Cl)cc2)cc1
- T/C (dose: 7.5 mg/kg/injection, schedule: Q01DX009 (ip), vehicle: saline with Tween-80): 99 % of control
- T/C (dose: 15.0 mg/kg/injection, schedule: Q01DX009 (ip), vehicle: saline with Tween-80): 104 % of control
- T/C (dose: 30.0 mg/kg/injection, schedule: Q01DX009 (ip), vehicle: saline with Tween-80): 95 % of control

SMILES: O=S1(=O)N=C(Sc2nc3ccccc3s2)c2ccccc21
- T/C [7]: 102 % of control
- T/C [8]: 107 % of control
- T/C [9]: 117 % of control

SMILES: Nc1ccc(-c2nc(N)c3[nH]cnc3n2)cc1
- T/C (dose: 12.5 mg/kg/injection, schedule: Q01DX005 (ip), vehicle: suspension in saline): 97 % of control
- T/C (dose: 25.0 mg/kg/injection, schedule: Q01DX005 (ip), vehicle: suspension in saline): 102 % of control
- T/C (dose: 50.0 mg/kg/injection, schedule: Q01DX005 (ip), vehicle: suspension in saline): 100 % of control
- T/C (dose: 100.0 mg/kg/injection, schedule: Q01DX005 (ip), vehicle: suspension in saline): 99 % of control
